No end group written: not given here. *: point of attachment. For = O=C*
Tests used:
Type in all cases: cell-based, human
U937 cells [1] = test: ROS production by flow cytometry, U937 cells; settings: 72 h; for ROS production (MFI): U937, 2D culture on HS5 stromal cells; for ROS production (mean fluorescence intensity): U937, monoculture
Method: (§1) A panel of human myeloid leukemia cell lines (HL60, K562, KG1a, THP1 and U937) and HS-5 mesenchymal stromal cells lineage were cultured in Roswell Park Memorial Institute medium-1640 (RPMI; Sigma) containing 10% Fetal Bovine Serum (Gibco), glutamine (2 mM; Sigma), penicillin (100 μg/mL; Sigma), streptomycin (100 μg/mL; Sigma), and amphotericin B (0.25 μg/mL; Gibco). The cells were maintained in a humidified atmosphere at 37° C. and 5% CO2 and the experiments were performed when they reached exponential growth. For the assays, cells were seeded on a 24-well plate and treated or not with Foxy-5 for 72 hours.
Cells treated with Foxy or with vehicle were collected and intracellular ROS generation was measured by flow cytometry following staining with DCFDA ([…]; Sigma). Acquisition of cells was performed on a FACScalibur flow cytometer (BD) and analysis was carried out using the FlowJo software.
Leukemia cell lines were treated for 72 h with Foxy-5, at doses of 50 and 100 μM, or vehicle, stained with DCFHA dye, and analyzed by flow cytometry.

U937 cells [2] = test: Cell growth assay, U937 cells; settings: Foxy-5 100 μM, 72 h
Method: as §1
Cells treated with Foxy or with vehicle were collected and cell number was evaluated by manual counting in monoculture and by microscopy with Image J software analysis in 2D culture.
Next, we evaluated the proliferation rates since this process is modulated by ROS. We treated the cells with Foxy-5 (100 μM) or with vehicle (DMSO) during 72 hours, and then cell growth was analyzed by counting the cells in monoculture, manually, or by the Image J software analysis of the 2D cultures. […] Similar results were obtained in the 2D culture system using leukemia cells and HS-5 mesenchymal stromal cells.

PI3K and MAPK pathways = test: Western blot of PI3K and MAPK pathway proteins, K562 cells; settings: K562, Foxy-5 50 μM or 100 μM, 72 h
Method: Equal amounts of protein were resolved by sodium dodecyl sulphate-polyacrylamide gel electrophoresis and transferred onto nitrocellulose membranes (Millipore). Detection was carried out with the chemiluminescent substrate using an ECL Plus (GE-Healthcare). Monoclonal antibodies against P70S6K (sc-8418) and polyclonal antibodies against Actin (sc-1616), AKT1/2/3 (sc-8312), BAX (sc-493), BCL-XL (sc-8392), GAPDH (sc-32,233), p-AKT1/2/3 (sc-33,437) and p-P70S6K (sc-7984) were purchased from Santa Cruz Biotechnology. ERK1/2 ([pT185/Y187]; 44-680G) and ERK1/2 (44-654G) from Invitrogen. Quantitative blots were carried out using the UN-SCAN-IT densitometer software.
Based on the above results, the activity of proteins of PI3K and MAPK pathways were then investigated in a western blot. Briefly, U937 and K562 cells were seeded and treated with Foxy-5 (50 μM or 100 μM) or vehicle for 72 hours. Then, equal amounts of protein were used for total extracts followed by electrophoresis on 12% SDS polyacrylamide gels under reducing conditions, transferred to nitrocellulose membranes, blocked with 10% skimmed milk in TBS-0.1% Tween for 1 hour, stained with appropriate primary and secondary antibodies. The membranes were visualized with chemiluminescence using an ECL Plus (GE-Healthcare). Quantitative analyses of the optical intensities of the protein bands were determined with Un-Scan-It Gel 6.1 (Silk Scientific Inc.).

K562 cells [3] = test: Transwell chemotaxis assay toward CXCL12, K562 cells; settings: K562, Foxy-5 100 μM 72 h pretreatment, CXCL12 100 ng/mL, 24 h
Method: Leukemic cell lines, pretreated or not with Foxy-5 (72 hours of stimulation) were tested for chemotaxis in Transwell-based assays for Chemotaxis (6.5 mm diameter, 8 μm pore size; Corning). Polycarbonate membranes were incubated with poly-L-lysine (1 mg/mL) for 1 hour at 37° C. followed by saline buffer washing. Briefly, cells were collected, washed with media containing bovine serum albumin (0.1% BSA; Sigma), and then seeded at a density of 5×10^5 cells into the upper chamber of the transwell. The lower chamber was filled with media containing 0.5% BSA (negative control), media containing 10% FBS (positive control) and media 5 containing 0.5% BSA with CXCL12 (100 ng/ml; Peprotech) (Melo et al., 2014). Following 6 h or 24 h of incubation at 37° C., cells that migrated into the lower chamber were collected, centrifuged, resuspended in saline buffer and counted. The number of migrated cells was expressed as a percentage of the input, i.e., the cells number applied directly to the lower compartment in parallel wells. The migration of cells was normalized to 100%+/−standard deviation (SD) of triplicates (Favaro et al., 2013).
We investigated whether restoring of WNT5A could enable the modulation CXCL12-induced chemotaxis of leukemia cells. […]

K562 cells [4] = test: Actin polymerization assay, K562 cells; settings: K562, Foxy-5 100 μM 72 h
Method: F-actin polymerization was analyzed in treated leukemic cell lines using AlexaFluor 633-labeled phalloidin (A22284, Invitrogen) before and after CXCL12 stimulation. The cells were stimulated with CXCL12 (300 ng/ml; Peprotech) in serum-free media at 37 °C for 30 and 120 seconds. The reaction was stopped by adding 3 volumes of paraformaldehyde (3.7%) at room temperature for 10 min, then washed and permeabilized on ice. Cells were stained with 633-phalloidin (2 mg/mL). Flow cytometric data were analyzed using a FACS flow cytometer (BD) followed by FlowJo software analysis. The F-actin content obtained were normalized calculating the ratio between each stimulated cells-mean fluorescence intensity (MFI) values and the nonstimulated cells MFI from the basal levels of the control cells and expressed as fold change.
Therefore, we performed a flow cytometry analysis to evaluate whether Foxy-5 treatment would be able to disrupt actin polymerization. Leukemia cell lines were treated with Foxy-5 (100 μM) or vehicle during 72 hours, stimulated with CXCL12 (300 ng/ml) for 30 or 120 seconds, and stained with […] for detection of actin polymerization by flow cytometry. […] Thus, a significant reduction of actin polymerization was shown after Foxy-5 treatment when compared to untreated cells after 30 seconds of CXCL12 induction (P<. 001).

Foxy-5: Formylated hexapeptide fragment of WNT5A: MDGCEL (SEQ. ID. NO. 3) with methionine in position 1 as N-formyl methionine; WNT5A-mimicking compound (For-MDGCEL; listed as Homo sapiens)
ROS production (MFI) (U937 cells [1]; Foxy-5 50 μM): 20.90 (range 19.90-22.63) MFI
ROS production (MFI) (U937 cells [1]; Foxy-5 100 μM): 23.50 (range 21.70-23.80) MFI
ROS production (mean fluorescence intensity) (U937 cells [1]; Foxy-5 50 μM): 7.32 (range 4.80-8.67) MFI
ROS production (mean fluorescence intensity) (U937 cells [1]; Foxy-5 100 μM): 7.09 (range 4.70-8.40) MFI
reduced cell growth compared to vehicle treated cells (U937 cells [2]; U937, 2D culture with HS-5 stromal cells): 1.72 fold decrease
reduced cell growth compared to vehicle treated cells (U937 cells [2]; U937, monoculture): 1.75 fold decrease
phosphorylation level of AKT compared to vehicle-treated cells (PI3K and MAPK pathways): lower phosphorylation levels
phosphorylation level of ERK compared to vehicle-treated cells (PI3K and MAPK pathways): lower phosphorylation levels
protein level of cyclin D1 compared to vehicle-treated cells (PI3K and MAPK pathways): reduced protein level
CXCL12-induced chemotaxis (migrated cells as percentage of the input, average) (K562 cells [3]): 1.52%
F-actin content following CXCL12 stimulation (K562 cells [4]; CXCL12 300 ng/ml for 30 seconds): 1.37 fold increase
F-actin content following CXCL12 stimulation (K562 cells [4]; CXCL12 300 ng/ml for 120 seconds): 1.31 fold increase

From patent US20240226234A1, “WNT5A PEPTIDES FOR THE TREATMENT OF ACUTE M[…]” (W[…], priority 2021, published 2024)
